Data on eleven compounds can be found in ChEMBL document CHEMBL4811216, “Chemotherapy for human schistosomiasis: how far have we come? What's new? Where do we go from here?” (RSC Med Chem, 2020).

Data set [1] concerns Schistosoma japonicum. Briefly: Antischistosomal activity against juvenile Schistosoma japonicum assessed as reduction in worm vitality at 25 uM incubated for 72 hrs relative to control. Type of data set: functional. On the set-up: scale not given: the % may be the effect or the level left.
The subject of data set [2] is Schistosoma japonicum. Briefly: Antischistosomal activity against adult Schistosoma japonicum assessed as reduction in worm vitality at >10 uM incubated for 48 hrs relative to control. The class given is functional. Further details: scale not given: the % may be the effect or the level left. Particulars: dose microM >10.
The test system of data set [3] is Schistosoma japonicum. Briefly: Antischistosomal activity against Schistosoma japonicum infected in ICR mouse assessed as total worm reduction at 250 mg/kg, po administered as single dose relative to control. The class given is functional. Further details: scale not given: the % may be the effect or the level left.
Data set [4] relates to Schistosoma mansoni. Briefly: Schistosomicidal-activity against Schistosoma mansoni LE assessed as seperation of worm couples at 25 uM measured within 120 hrs relative to control. The class given is functional.
Data set [5] deals with Schistosoma mansoni. Briefly: Schistosomicidal-activity against Schistosoma mansoni Puerto-Rican schistosomula incubated for 7 days by trypan blue dye-exclusion test. The class given is functional, organism-based. Particulars: 168 h.
Data set [6] deals with Schistosoma mansoni. In words: Antischistosomal activity against Schistosoma mansoni Puerto-Rican infected in BALB/c mouse assessed as worm burden reduction at 300 mg/kg, po BID administered for 2 consecutive days by light microscopic method relative to control. The class given is functional. Further details: scale not given: the % may be the effect or the level left.
Data set [7] relates to Schistosoma mansoni. In words: Antischistosomal activity against adult Schistosoma mansoni LE assessed as worm mortality at 100 ug/ml incubated for 24 hrs by inverted microscopic method relative to control. The class given is functional.
The test system of data set [8] is Schistosoma mansoni. In words: Antischistosomal activity against adult Schistosoma mansoni LE assessed as reduction in worm vitality measured every 24 hrs by inverted microscopy. The class given is functional, organism-based.
For data set [9], the system named is Schistosoma mansoni. Briefly: Antischistosomal activity against Schistosoma mansoni LE schistosomula assessed as reduction in worm vitality measured every 24 hrs by inverted microscopy. The class given is functional, organism-based.
In data set [10] the test system is Schistosoma mansoni. Briefly: Antischistosomal activity against Schistosoma mansoni incubated for 72 hrs by microscopic method. The class given is functional, organism-based.
Data set [11] has as its system Schistosoma mansoni. In words: Antischistosomal activity against adult Schistosoma mansoni infected in NMRI mouse assessed as worm burden reduction at 400 mg/kg, po administered as single dose and measured at 21 days post treatment relative to control. The following applies: time 21 day. Type of data set: functional. On the set-up: scale not given: the % may be the effect or the level left.

The nature of data set [12]: Cmax in C57BL/6 mouse at 20 mg/kg, po measured after 3 hrs. Particulars: in vivo. Type of data set: ADME, organism-based. On the set-up: route oral, dose 20 mg/kg, time 3 hrs.
Data set [13] is described as follows: Half life in C57BL/6 mouse at 20 mg/kg, po. Type of data set: ADME, organism-based. Particulars: in vivo.
Data set [14] can be described thus: Volume of distribution in C57BL/6 mouse at 20 mg/kg, po. The class given is ADME, organism-based. The following applies: in vivo.
The nature of data set [15]: Oral bioavailability in C57BL/6 mouse at 20 mg/kg. The class given is ADME, organism-based. The following applies: in vivo.
The subject of data set [16] is Schistosoma mansoni. Briefly: Antischistosomal activity against Schistosoma mansoni LE larva at […] measured within 48 hrs by inverted microscopic method relative to control. Type of data set: functional. The following applies: dose 2.5 µg/ml.
Data set [17] deals with Schistosoma mansoni. Briefly: Antischistosomal activity against adult Schistosoma mansoni LE assessed as worm mortality at 100 ug/ml measured after 96 hrs by inverted microscopic method relative to control. Type of data set: functional.
Data set [18] deals with Schistosoma mansoni. Briefly: Antischistosomal activity against adult Schistosoma mansoni LE assessed as worm mortality measured after 96 hrs by inverted microscopic method. Type of data set: functional, organism-based.
The subject of data set [19] is Schistosoma mansoni. In words: Antischistosomal activity against Schistosoma mansoni LE infected in BALb/C mouse assessed as reduction in worm burden at 400 mg/kg, po administered as single dose and measured after 15 days relative to control. The class given is functional. Further details: scale not given: the % may be the effect or the level left. The following applies: time 15 day.

Data set [20] deals with Schistosoma japonicum. In words: Antischistosomal activity against Schistosoma japonicum at 10 uM incubated for 72 hrs by inverted microscopic method relative to control. Type of data set: functional.
Data set [21] concerns Schistosoma mansoni. In words: Antischistosomal activity against Schistosoma mansoni NTS incubated for 72 hrs by microscopic method. Type of data set: functional, organism-based.
Data set [22] relates to Schistosoma mansoni. In words: Antischistosomal activity against adult Schistosoma mansoni incubated for 72 hrs by microscopic method. Type of data set: functional, organism-based.
Data set [23] concerns Schistosoma mansoni. Briefly: Antischistosomal activity against Schistosoma mansoni NTS assessed as worm mortality at 10 uM measured up to 72 hrs by microscopic method relative to control. Particulars: time hrs <=72. The class given is functional.
The test system of data set [24] is Schistosoma mansoni. Briefly: Antischistosomal activity against adult Schistosoma mansoni assessed as worm mortality at 10 uM measured up to 72 hrs by microscopic method relative to control. Particulars: time hrs <=72. Type of data set: functional.
Data set [25] has as its system Schistosoma mansoni. In words: Antischistosomal activity against adult Schistosoma mansoni measured up to 72 hrs by microscopic method. Type of data set: functional, organism-based.
Data set [26] relates to Schistosoma mansoni. Briefly: Antischistosomal activity against Schistosoma mansoni infected in NMRI mouse assessed as reduction in total worm burden at 400 mg/kg, po measured after 21 days relative to control. Type of data set: functional. On the set-up: scale not given: the % may be the effect or the level left. The following applies: time 21 day.
The subject of data set [27] is Schistosoma mansoni. Briefly: Antischistosomal activity against Schistosoma mansoni infected in NMRI mouse assessed as reduction in female worm burden at 400 mg/kg, po measured after 21 days relative to control. Type of data set: functional. On the set-up: scale not given: the % may be the effect or the level left. Particulars: time 21 day.
Data set [28] concerns Schistosoma mansoni. Briefly: Antischistosomal activity against Schistosoma mansoni BH infected in Balb/c mouse assessed as reduction in worm burden at 400 mg/kg, po measurement after 2 weeks. Further details: scale not given: the % may be the effect or the level left. The class given is functional.
The subject of another data set is Schistosoma haematobium. In words: Antischistosomal activity against Schistosoma haematobium at 10 uM measured after 72 hrs relative to control. The class given is functional.
Data set [29] relates to Schistosoma mansoni. In words: Antischistosomal activity against Schistosoma mansoni Liberian NTS at 10 uM measured after 24 hrs relative to control. The class given is functional.
Data set [30] relates to Schistosoma mansoni. Briefly: Antischistosomal activity against adult Schistosoma mansoni Liberian at 10 uM measured after 24 hrs relative to control. Type of data set: functional.
Data set [31] has as its system Schistosoma mansoni. Briefly: Antischistosomal activity against adult Schistosoma mansoni Liberian at 10 uM measured after 48 hrs relative to control. Type of data set: functional.
The subject of data set [32] is Schistosoma mansoni. Briefly: microbe, parasite or virus in culture. Particulars: Liberian, 72 h.
Description: Antischistosomal activity against Schistosoma mansoni Liberian NTS incubated for 72 hrs by microscopic method
The test system of data set [33] is Schistosoma mansoni. Briefly: microbe, parasite or virus in culture. The following applies: 72 h.
Description: Antischistosomal activity against Schistosoma mansoni incubated for 72 hrs by inverted microscopic method

By EC50 is commonly meant the concentration at which the effect is half-maximal. Usually mortality stands for the share of the test organisms that died. What is called IC50 is the point on the concentration scale where inhibition reaches its midpoint. One may read the Cmax as the maximum level reached in the sampled fluid or tissue. Usually bioavailability stands for the share of a dose that reaches the circulation, judged against a reference dose that is usually intravenous.

Regarding `O=C(C1CCCCC1)N1CC(=O)N2CCc3c(Br)cccc3C2C1` (stereo not given), the results for the Activity with Schistosoma japonicum [1], in the data set on Schistosoma japonicum [2] and in the data set on Schistosoma japonicum [3] were <10%, 100% and 54.3%, respectively.

As for `COc1cc([C@@H]2OC(=O)[C@@H]3[C@H]2C(=O)O[C@H]3c2cc(OC)c(O)c(OC)c2)cc(OC)c1O`, the Activity in the data set on Schistosoma mansoni [4] was 100%.

Regarding `C1CCCCCC2(CCCCC1)OOCCCOO2`, in the data set with Schistosoma mansoni [5], a half-maximal effect (EC50) was put at 16 nM. Also, in the data set with Schistosoma mansoni [6], the Activity is reported as 63%.

For the compound `Cc1ccc(-c2cs/c(=N/N=C/CN3C(=O)c4ccccc4C3=O)[nH]2)cc1`, the mortality at 100 µg/mL in the data set on Schistosoma mansoni [7] was found to be 100%. Besides, the EC50 with Schistosoma mansoni [8] was determined as 38700 nM; in the data set on Schistosoma mansoni [9] it was 9770 nM.

As to `N#Cc1c(C(F)(F)F)cc(NCc2ccccc2F)n2c1nc1cc(Cl)c(Cl)cc12`, the Activity is on record as <1% in the data set with Schistosoma japonicum [1] and 69% in the data set with Schistosoma mansoni [11]. The IC50 in the data set on Schistosoma mansoni [10] stood at 380 nM. For the same compound, the Cmax in [12] was 300 nM. This compound also registered a t1/2 in [13] of 18 min. This compound also gave a Vd in [14] of 0.18 L/kg. Besides, the bioavailability in [15] was < 1%.

The compound `O=C1c2ccccc2C(=O)N1Nc1nc(-c2ccc(Cl)cc2Cl)cs1` had a mortality at […] in the data set on Schistosoma mansoni [16] of 100%. Further, the mortality at 100 µg/mL in the data set with Schistosoma mansoni [17] stood at 100%. Also, the EC50 in the data set with Schistosoma mansoni [18] is 50600 nM. The Activity in the data set with Schistosoma mansoni [19] came to 85%.

As to `CCCCCCCCCCOc1cc2c(O)c(C(=O)NCCN(CC)CC)cnc2cc1OCC`, the Activity in the data set with Schistosoma japonicum [20] is recorded as 100%.

With `O=C(Nc1cc(C(F)(F)F)ccc1Cl)c1ccccc1O`, the IC50 in the data set with Schistosoma mansoni [21] stood at 200 nM; in the data set on Schistosoma mansoni [22] it was 600 nM.

Regarding `CCNCCNc1cc(-c2ccc(Cl)cc2)c(C#N)c2nc3ccccc3n12`, the figures for the mortality at 10 µM with Schistosoma mansoni [23] and with Schistosoma mansoni [24] were > 70% and > 60%, respectively. For the same compound, half-maximal inhibition in the data set on Schistosoma mansoni [25] (IC50) was put at 2440 nM. Besides, the Activity in the data set with Schistosoma mansoni [26] was determined as 58.7%; with Schistosoma mansoni [27], 61.3%.

As for `COc1cc(O)ccc1C(=O)/C=C/c1ccccc1`, in the data set with Schistosoma mansoni [28], the Activity worked out at 31.8%.

As to `CN1CCN(CCCOc2ncc(Nc3ncc(-c4ccc(C(F)(F)F)c(F)c4)nc3C(N)=O)cn2)CC1`, the Activity in the data set with Schistosoma haematobium is 100%; in the data set on Schistosoma mansoni [29], 100%; in the data set with Schistosoma mansoni [30], 70%; with Schistosoma mansoni [31] it was 100%. In addition, the IC50 with Schistosoma mansoni [32] is 800 nM; in the data set with Schistosoma mansoni [33], 3000 nM.
